The target in assay [1] is Sodium-dependent noradrenaline transporter (Homo sapiens, UniProt P23975).
In assay [2] the target is Sodium-dependent dopamine transporter (Homo sapiens, UniProt Q01959).
Assay [3] concerns the target Sodium-dependent serotonin transporter (Homo sapiens, UniProt P31645).

Chain of Sodium-dependent noradrenaline transporter (P23975 whole entry): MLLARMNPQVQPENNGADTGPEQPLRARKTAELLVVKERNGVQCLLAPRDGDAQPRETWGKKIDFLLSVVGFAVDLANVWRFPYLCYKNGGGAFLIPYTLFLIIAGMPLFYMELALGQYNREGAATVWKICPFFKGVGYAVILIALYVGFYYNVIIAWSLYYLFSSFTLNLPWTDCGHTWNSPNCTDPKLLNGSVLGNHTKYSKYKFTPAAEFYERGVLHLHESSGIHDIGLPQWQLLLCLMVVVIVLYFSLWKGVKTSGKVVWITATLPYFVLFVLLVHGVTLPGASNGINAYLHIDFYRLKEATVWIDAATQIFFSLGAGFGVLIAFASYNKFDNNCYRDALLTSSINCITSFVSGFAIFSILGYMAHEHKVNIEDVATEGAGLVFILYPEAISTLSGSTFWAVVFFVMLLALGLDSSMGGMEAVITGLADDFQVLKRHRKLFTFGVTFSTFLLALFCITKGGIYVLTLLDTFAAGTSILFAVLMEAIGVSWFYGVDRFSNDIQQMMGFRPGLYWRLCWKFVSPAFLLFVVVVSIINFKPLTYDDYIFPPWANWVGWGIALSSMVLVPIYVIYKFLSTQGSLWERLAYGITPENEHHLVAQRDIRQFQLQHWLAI
Chain of Sodium-dependent serotonin transporter (P31645 whole entry): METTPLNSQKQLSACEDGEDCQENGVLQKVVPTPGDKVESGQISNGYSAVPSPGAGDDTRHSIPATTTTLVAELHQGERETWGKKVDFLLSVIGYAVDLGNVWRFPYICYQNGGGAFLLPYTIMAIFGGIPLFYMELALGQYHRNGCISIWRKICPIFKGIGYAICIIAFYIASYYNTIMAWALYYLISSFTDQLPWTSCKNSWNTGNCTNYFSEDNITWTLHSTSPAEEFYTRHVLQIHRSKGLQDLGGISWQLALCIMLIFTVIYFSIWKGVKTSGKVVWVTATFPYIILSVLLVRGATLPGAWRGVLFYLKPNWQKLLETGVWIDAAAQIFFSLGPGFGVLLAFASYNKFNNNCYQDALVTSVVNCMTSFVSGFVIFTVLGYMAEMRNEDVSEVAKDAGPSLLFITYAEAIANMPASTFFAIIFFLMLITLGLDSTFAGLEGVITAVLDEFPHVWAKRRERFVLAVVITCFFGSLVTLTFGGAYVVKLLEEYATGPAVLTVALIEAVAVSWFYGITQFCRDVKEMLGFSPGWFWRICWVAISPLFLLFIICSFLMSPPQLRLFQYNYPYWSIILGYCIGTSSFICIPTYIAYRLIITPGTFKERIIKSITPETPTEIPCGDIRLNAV
Chain of Sodium-dependent dopamine transporter (Q01959 whole entry): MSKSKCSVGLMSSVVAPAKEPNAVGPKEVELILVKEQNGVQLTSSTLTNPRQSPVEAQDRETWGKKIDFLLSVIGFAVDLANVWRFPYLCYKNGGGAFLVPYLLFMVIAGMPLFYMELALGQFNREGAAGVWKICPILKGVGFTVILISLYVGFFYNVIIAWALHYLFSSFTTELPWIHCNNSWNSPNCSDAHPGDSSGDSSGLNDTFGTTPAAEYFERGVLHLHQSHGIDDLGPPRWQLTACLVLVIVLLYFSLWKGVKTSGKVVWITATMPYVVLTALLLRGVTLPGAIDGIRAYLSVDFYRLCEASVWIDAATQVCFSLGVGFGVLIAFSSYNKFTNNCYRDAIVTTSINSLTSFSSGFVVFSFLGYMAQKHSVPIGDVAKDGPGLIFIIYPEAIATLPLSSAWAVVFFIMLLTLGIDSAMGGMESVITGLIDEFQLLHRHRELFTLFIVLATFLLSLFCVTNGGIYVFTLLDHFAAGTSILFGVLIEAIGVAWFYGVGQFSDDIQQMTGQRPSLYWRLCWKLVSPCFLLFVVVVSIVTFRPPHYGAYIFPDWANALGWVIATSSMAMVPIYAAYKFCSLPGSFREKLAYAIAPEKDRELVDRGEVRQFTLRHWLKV

Regarding `CN1[C@@H](CCc2ccccc2)CCC[C@H]1CCc1ccccc1`, the inhibition constant Ki in assay [1] is 1800 nM; in assay [2], 97 nM; in assay [3], 530 nM.

For `CN1[C@H](/C=C/c2ccccc2)CCC[C@@H]1/C=C/c1ccccc1`, the Ki turned out to be 277 nM in assay [1], 43 nM in assay [2] and 1890 nM in assay [3].

For `CN1[C@@H](C[C@@H](O)c2ccccc2)CCC[C@H]1CC(=O)c1ccccc1` [Lobeline], the Ki in assay [1] is 1870 nM; in assay [2], 5400 nM; in assay [3], more than 10000 nM.

For the origin of these results see BindingDB's records for doi:10.1124/jpet.104.068098 (University of Kentucky, 2004).
